Literature values as cited in patent US7879746B2, “Hydrophilic polypropylene fibers having antimicrobial activity” (3M Innovative Properties Company, priority 1999, dated 2011).

settings: 100% active, glossary value

| Substance | HLB |
| --- | --- |
| sorbitan monopalmitate [SPAN™ 40] | 6.7 |
| sorbitan monostearate [ARLACEL™ 60] | 4.3 |
| sorbitan sequioleate (1½ mole adduct) [ARLACEL™ 83] | 3.7 |
